The values that follow come from patent publication US10004701B2, “Methods and compositions for treating infection” (UNIVERSITY OF ROCHESTER, priority 2012, dated 2018).

Common to all, as to test: AK assay 384-well format, Prestwick library screening
The test system of assay [1] is A. baumannii strain 98-37-09. In kind it is cell-based, Acinetobacter baumannii. The conditions noted are these: 50 μM final drug concentration; for fold induction at 50 µM: Acinetobacter baumannii, 983709, 3 h.
In assay [2] the test system is S. aureus strain USA300-0114. In kind it is cell-based, Staphylococcus aureus. The settings on record: 50 μM final drug concentration; for fold induction at 50 µM: Staphylococcus aureus, USA300, 3 h.
In the next assay the test system is K. pneumoniae. In kind it is cell-based, Klebsiella pneumoniae. The settings on record: 50 μM final drug concentration; for fold induction at 50 µM: Klebsiella pneumoniae, 3 h.
Another assay deals with E. coli. In kind it is cell-based, Escherichia coli. The conditions noted are these: 50 μM final drug concentration; for fold induction at 50 µM: Escherichia coli, 3 h.
For another assay, the system named is E. cloacae. The assay is classed as cell-based, Enterobacter cloacae. The conditions noted are these: 50 μM final drug concentration; for fold induction at 50 µM: Enterobacter cloacae, 3 h.
The next assay deals with P. aeruginosa. In kind it is cell-based, Pseudomonas aeruginosa. The conditions noted are these: 50 μM final drug concentration; for fold induction at 50 µM: Pseudomonas aeruginosa, 3 h.
The test system of a further assay is E. faecium. The assay is classed as cell-based, Enterococcus faecium. The conditions noted are these: 50 μM final drug concentration; for fold induction at 50 µM: Enterococcus faecium, 3 h.
Setting [3] is: planktonic, […], read-out: AK-based Prestwick Library Screening Results, A. baumannii (fold increase in extracellular AK activity).
Where [4] appears, read: planktonic, […], read-out: AK-based Prestwick Library Screening Results, S. aureus (fold increase in extracellular AK activity).
The mark [5] stands for this setting: planktonic, […], read-out: AK-based Prestwick Library Screening Results, K. pneumoniae (fold increase in extracellular AK activity).
Setting [6] is: planktonic, […], read-out: AK-based Prestwick Library Screening Results, E. coli (fold increase in extracellular AK activity).
Where [7] appears, read: planktonic, […], read-out: AK-based Prestwick Library Screening Results, E. cloacae (fold increase in extracellular AK activity).
Where [8] appears, read: planktonic, […], read-out: AK-based Prestwick Library Screening Results, P. aeruginosa (fold increase in extracellular AK activity).
[9] abbreviates: planktonic, […], read-out: AK-based Prestwick Library Screening Results, E. faecium (fold increase in extracellular AK activity).
Where [10] appears, read: cutoff for positive-scoring molecules 3-fold increase.

Molecules are shown by their SMILES. Structures can show the parent of a compound that is named as a salt. Where two headings read alike, the source gives them in different places.

Turning to `CCN1C[C@]2(COC)CC[C@H](OC)[C@]34C5C[C@@H]6[C@@H](OC)C[C@@]7(OCO[C@@]7(C13)[C@@H](O)C24)C5[C@H]6OC` (stereo partly drawn) [Delcorine], the fold induction at 50 µM in assay [1] (setting [3]) was determined as 0.9; in assay [2] (setting [4]), 0.7; in the assay on K. pneumoniae (setting [5]), 0.7; with E. coli (setting [6]), 0.8; in the assay with E. cloacae (setting [7]), 1.2; with P. aeruginosa (setting [8]), 0.9. Moreover, in the assay with E. faecium (setting [9]), the fold induction at 50 µM is 0.9.
Turning to `CCN1C[C@]2(COC)CC[C@H](O)[C@]34C1[C@@](O)([C@@H](OC)[C@H]23)[C@@]1(O)C[C@H](OC)[C@H]2C[C@@H]4[C@@H]1[C@H]2OC` [Delsoline], the fold induction at 50 µM in assay [1] (setting [3]) was 0.9; in assay [2] (setting [4]), 0.8; in the assay with K. pneumoniae (setting [5]), 0.7; in the assay on E. coli (setting [6]), 0.9; with E. cloacae (setting [7]), 1.3; with P. aeruginosa (setting [8]), 0.8. Moreover, the fold induction at 50 µM in the assay on E. faecium (setting [9]) worked out at 0.9.
For `CCN1C[C@]2(C)CC[C@H](OC)[C@@]34C1[C@]1(OCO[C@@]15C[C@H](OC)[C@H]1C[C@]3(O)[C@@H]5[C@H]1OC)[C@@H](OC(C)=O)[C@H]24` [Deltaline], the fold induction at 50 µM in assay [1] (setting [3]) is 0.8; in assay [2] (setting [4]) it was 0.8; with K. pneumoniae (setting [5]), 0.7; in the assay with E. coli (setting [6]), 0.9; in the assay on E. cloacae (setting [7]), 1.1; in the assay on P. aeruginosa (setting [8]), 0.8. Besides, the fold induction at 50 µM with E. faecium (setting [9]) worked out at 0.9.
With `CN(CCCCCCCCCCN(C)C(=O)Oc1cccc([N+](C)(C)C)c1)C(=O)Oc1cccc([N+](C)(C)C)c1` [Demecarium bromide], the fold induction at 50 µM was 1.1 in assay [1] (setting [3]); 0.8 in assay [2] (setting [4]); 1 with K. pneumoniae (setting [5]); 1.4 in the assay on E. coli (setting [6]); 2 in the assay on E. cloacae (setting [7]); 1.3 with P. aeruginosa (setting [8]). The fold induction at 50 µM in the assay with E. faecium (setting [9]) turned out to be 1.
Regarding `CN(C)[C@@H]1C(O)=C(C(N)=O)C(=O)[C@@]2(O)C(O)=C3C(=O)c4c(O)ccc(Cl)c4[C@@H](O)[C@H]3C[C@@H]12` [Demeclocycline hydrochloride], the fold induction at 50 µM was determined as 3.4 in assay [1] (planktonic, cutoff for positive-scoring molecules 3-fold increase, read-out: AK-based Prestwick Library Screening Results, A. baumannii (fold increase in extracellular AK activity)); 7.1 in assay [2] (planktonic, cutoff for positive-scoring molecules 3-fold increase, read-out: AK-based Prestwick Library Screening Results, S. aureus (fold increase in extracellular AK activity)); 0.2 in the assay with K. pneumoniae (planktonic, cutoff for positive-scoring molecules 3-fold increase, read-out: AK-based Prestwick Library Screening Results, K. pneumoniae (fold increase in extracellular AK activity)); 0.5 with E. coli (planktonic, cutoff for positive-scoring molecules 3-fold increase, read-out: AK-based Prestwick Library Screening Results, E. coli (fold increase in extracellular AK activity)); 1.3 in the assay on E. cloacae (planktonic, cutoff for positive-scoring molecules 3-fold increase, read-out: AK-based Prestwick Library Screening Results, E. cloacae (fold increase in extracellular AK activity)); 0.4 in the assay on P. aeruginosa (planktonic, cutoff for positive-scoring molecules 3-fold increase, read-out: AK-based Prestwick Library Screening Results, P. aeruginosa (fold increase in extracellular AK activity)). Moreover, the fold induction at 50 µM with E. faecium (planktonic, cutoff for positive-scoring molecules 3-fold increase, read-out: AK-based Prestwick Library Screening Results, E. faecium (fold increase in extracellular AK activity)) was 0.9.
For `CC[N+](CC)(CC(=O)Nc1c(C)cccc1C)Cc1ccccc1` [Denatonium benzoate], the fold induction at 50 µM in assay [1] (cutoff for positive-scoring molecules 3-fold increase, read-out: AK-based Prestwick Library Screening Results, A. baumannii (fold increase in extracellular AK activity)) turned out to be 0.3; in assay [2] (cutoff for positive-scoring molecules 3-fold increase, read-out: AK-based Prestwick Library Screening Results, S. aureus (fold increase in extracellular AK activity)), 0.4; in the assay with K. pneumoniae (cutoff for positive-scoring molecules 3-fold increase, read-out: AK-based Prestwick Library Screening Results, K. pneumoniae (fold increase in extracellular AK activity)), 0.4; in the assay with E. coli (cutoff for positive-scoring molecules 3-fold increase, read-out: AK-based Prestwick Library Screening Results, E. coli (fold increase in extracellular AK activity)) it was 0.5; in the assay with E. cloacae (cutoff for positive-scoring molecules 3-fold increase, read-out: AK-based Prestwick Library Screening Results, E. cloacae (fold increase in extracellular AK activity)) it was 0.4; in the assay with P. aeruginosa (cutoff for positive-scoring molecules 3-fold increase, read-out: AK-based Prestwick Library Screening Results, P. aeruginosa (fold increase in extracellular AK activity)), 0.4. For the same compound, the fold induction at 50 µM in the assay on E. faecium (cutoff for positive-scoring molecules 3-fold increase, read-out: AK-based Prestwick Library Screening Results, E. faecium (fold increase in extracellular AK activity)) was 0.9.
Consider `C[C@]12CC[C@H]3[C@@H](CCC4=CC(=O)CC[C@@]43C)[C@@H]1CC[C@@H]2C(=O)CO` [Deoxycorticosterone], for which the “AK-based Prestwick Library Screening Results, A. baumannii (fold increase in extracellular AK activity)” value in assay [1] (setting [10]) came to 1.3. Further, the “AK-based Prestwick Library Screening Results, S. aureus (fold increase in extracellular AK activity)” value in assay [2] (setting [10]) came out at 1.6. The “AK-based Prestwick Library Screening Results, K. pneumoniae (fold increase in extracellular AK activity)” value in the assay with K. pneumoniae (setting [10]) worked out at 1.2. The “AK-based Prestwick Library Screening Results, E. coli (fold increase in extracellular AK activity)” value in the assay on E. coli (setting [10]) came to 1.2. The “AK-based Prestwick Library Screening Results, E. cloacae (fold increase in extracellular AK activity)” value in the assay on E. cloacae (setting [10]) is on record as 1.3. For the same compound, in the assay on P. aeruginosa (setting [10]), the “AK-based Prestwick Library Screening Results, P. aeruginosa (fold increase in extracellular AK activity)” value was 1.3. For the same compound, in the assay on E. faecium (setting [10]), the “AK-based Prestwick Library Screening Results, E. faecium (fold increase in extracellular AK activity)” value turned out to be 1.2.
Consider `Cc1cc(N)c2ccccc2[n+]1CCCCCCCCCC[n+]1c(C)cc(N)c2ccccc21` [Dequalinium dichloride], for which the fold induction at 50 µM in assay [1] (planktonic, cutoff for positive 3-fold increase, read-out: AK-based Prestwick Library Screening Results, A. baumannii (fold increase in extracellular AK activity)) was 3.2; in assay [2] (planktonic, cutoff for positive 3-fold increase, read-out: AK-based Prestwick Library Screening Results, S. aureus (fold increase in extracellular AK activity)), 1.2; in the assay on K. pneumoniae (planktonic, cutoff for positive 3-fold increase, read-out: AK-based Prestwick Library Screening Results, K. pneumoniae (fold increase in extracellular AK activity)), 1.6; in the assay on E. coli (planktonic, cutoff for positive 3-fold increase, read-out: AK-based Prestwick Library Screening Results, E. coli (fold increase in extracellular AK activity)), 3; in the assay on E. cloacae (planktonic, cutoff for positive 3-fold increase, read-out: AK-based Prestwick Library Screening Results, E. cloacae (fold increase in extracellular AK activity)), 1.8; with P. aeruginosa (planktonic, cutoff for positive 3-fold increase, read-out: AK-based Prestwick Library Screening Results, P. aeruginosa (fold increase in extracellular AK activity)), 2.3. Besides, the fold induction at 50 µM with E. faecium (planktonic, cutoff for positive 3-fold increase, read-out: AK-based Prestwick Library Screening Results, E. faecium (fold increase in extracellular AK activity)) was 1.1.
Regarding `CNCCCN1c2ccccc2CCc2ccccc21` [Desipramine hydrochloride], the fold induction at 50 µM in assay [1] (planktonic A. baumannii, cutoff for positive-scoring molecules 3-fold increase, read-out: AK-based Prestwick Library Screening Results, A. baumannii (increase in extracellular AK activity)) was found to be 0.7; in assay [2] (planktonic S. aureus, cutoff for positive-scoring molecules 3-fold increase, read-out: AK-based Prestwick Library Screening Results, S. aureus (increase in extracellular AK activity)) it was 0.7; in the assay with K. pneumoniae (planktonic K. pneumoniae, cutoff for positive-scoring molecules 3-fold increase, read-out: AK-based Prestwick Library Screening Results, K. pneumoniae (increase in extracellular AK activity)) it was 0.7; with E. coli (planktonic E. coli, cutoff for positive-scoring molecules 3-fold increase, read-out: AK-based Prestwick Library Screening Results, E. coli (increase in extracellular AK activity)), 0.9; in the assay on E. cloacae (planktonic E. cloacae, cutoff for positive-scoring molecules 3-fold increase, read-out: AK-based Prestwick Library Screening Results, E. cloacae (increase in extracellular AK activity)) it was 0.8; in the assay on P. aeruginosa (planktonic P. aeruginosa, cutoff for positive-scoring molecules 3-fold increase, read-out: AK-based Prestwick Library Screening Results, P. aeruginosa (increase in extracellular AK activity)) it was 0.9. In the assay with E. faecium (planktonic E. faecium, cutoff for positive-scoring molecules 3-fold increase, read-out: AK-based Prestwick Library Screening Results, E. faecium (increase in extracellular AK activity)), the fold induction at 50 µM came out at 0.8.
